According to patent US20240376121A1, “COMPOUNDS AND USES THEREOF” (Foghorn Therapeutics Inc., priority 2021, published 2024):

Assays:
[1] = target: T1, HiBit-BRG1 fusion protein (Homo sapiens, UniProt P51532); assay: HiBiT-BRG1 cell-based degradation assay (Nano-Glo HiBiT Lytic Detection); details: stable HeLa cell line expressing HiBit-BRG1 and LgBit, 24 h incubation; for Dmax: top dose 30 μM, read-out: BRG1 HiBit Degradation Maximum (%); for DC50: read-out: BRMG1 HiBit Degradation IC50
T1 construct: expressed in transfected cells
In short: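 Degradation was scored from HiBiT lytic luminescence, scaled between DMSO-treated wells and wells given 2 μM of a standard BRM/BRG1 degrader. Cells were a stable HeLa HiBiT-BRG1/LgBiT line dosed for 24 h, ten concentrations in 3-fold steps from 30 μM, in duplicate.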

HiBit-BRM fusion protein = target: T2, HiBit-BRM fusion protein (Homo sapiens, UniProt P51531); assay: HiBiT-BRM cell-based degradation assay (Nano-Glo HiBiT Lytic Detection); details: stable HeLa cell line expressing HiBiT-BRM, 24 h incubation; for BRM HiBit Degradation Maximum (%): top dose 30 μM; for DC50: read-out: BRM HiBit Degradation IC50
T2 construct: expressed in transfected cells
In short: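 Residual HiBiT-BRM in a stable HeLa line was measured by Nano-Glo lytic luminescence after 24 h compound exposure (top final dose 30 μM, 3-fold, 10 points, duplicate). Values are % degradation, scaled between DMSO-treated cells and cells given 2 μM of a known BRM/BRG1 degrader.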

T1 sequence (P51532 whole entry, the tested form may be a part): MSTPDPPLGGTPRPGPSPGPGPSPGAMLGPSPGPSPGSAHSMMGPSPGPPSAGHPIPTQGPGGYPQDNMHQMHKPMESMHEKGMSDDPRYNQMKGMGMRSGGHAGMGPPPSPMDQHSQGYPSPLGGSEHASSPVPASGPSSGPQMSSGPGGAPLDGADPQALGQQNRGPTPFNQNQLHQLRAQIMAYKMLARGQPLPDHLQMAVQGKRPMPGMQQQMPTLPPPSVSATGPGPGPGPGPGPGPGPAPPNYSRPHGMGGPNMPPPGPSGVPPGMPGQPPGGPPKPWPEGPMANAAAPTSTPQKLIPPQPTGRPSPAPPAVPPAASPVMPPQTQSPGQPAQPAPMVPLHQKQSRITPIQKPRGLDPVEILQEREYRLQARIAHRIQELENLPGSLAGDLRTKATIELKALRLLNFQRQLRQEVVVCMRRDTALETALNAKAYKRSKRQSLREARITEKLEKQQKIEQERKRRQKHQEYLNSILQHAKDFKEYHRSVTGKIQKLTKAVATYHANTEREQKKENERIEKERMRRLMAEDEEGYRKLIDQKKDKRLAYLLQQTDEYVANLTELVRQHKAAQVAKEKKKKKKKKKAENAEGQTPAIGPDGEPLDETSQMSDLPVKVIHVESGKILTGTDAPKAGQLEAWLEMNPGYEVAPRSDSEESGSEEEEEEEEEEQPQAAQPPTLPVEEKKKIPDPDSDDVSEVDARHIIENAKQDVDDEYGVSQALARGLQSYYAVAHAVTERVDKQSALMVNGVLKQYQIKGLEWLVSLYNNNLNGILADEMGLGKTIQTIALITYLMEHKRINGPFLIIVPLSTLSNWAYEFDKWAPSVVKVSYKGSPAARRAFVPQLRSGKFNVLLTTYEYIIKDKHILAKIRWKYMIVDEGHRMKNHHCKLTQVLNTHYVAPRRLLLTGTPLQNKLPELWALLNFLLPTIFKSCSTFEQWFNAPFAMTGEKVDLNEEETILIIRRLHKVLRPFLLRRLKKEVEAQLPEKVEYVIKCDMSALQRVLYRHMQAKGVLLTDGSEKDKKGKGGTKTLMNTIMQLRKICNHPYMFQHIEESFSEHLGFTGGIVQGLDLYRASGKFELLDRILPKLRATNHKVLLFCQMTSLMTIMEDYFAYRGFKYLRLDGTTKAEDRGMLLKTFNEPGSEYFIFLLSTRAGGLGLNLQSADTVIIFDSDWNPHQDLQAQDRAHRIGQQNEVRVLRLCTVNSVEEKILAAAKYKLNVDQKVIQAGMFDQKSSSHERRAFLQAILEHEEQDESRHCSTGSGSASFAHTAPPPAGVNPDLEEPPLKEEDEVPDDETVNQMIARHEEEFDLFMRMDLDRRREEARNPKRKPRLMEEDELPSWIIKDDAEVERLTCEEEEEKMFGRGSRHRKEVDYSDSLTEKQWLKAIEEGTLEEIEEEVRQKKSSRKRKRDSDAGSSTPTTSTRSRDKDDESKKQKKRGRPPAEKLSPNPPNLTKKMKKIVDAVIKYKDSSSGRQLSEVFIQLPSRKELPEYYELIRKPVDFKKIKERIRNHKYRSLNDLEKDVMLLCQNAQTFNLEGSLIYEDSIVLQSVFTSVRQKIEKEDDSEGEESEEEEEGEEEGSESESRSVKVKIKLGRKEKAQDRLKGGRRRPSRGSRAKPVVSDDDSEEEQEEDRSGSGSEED
T2 sequence (P51531 whole entry, the tested form may be a part): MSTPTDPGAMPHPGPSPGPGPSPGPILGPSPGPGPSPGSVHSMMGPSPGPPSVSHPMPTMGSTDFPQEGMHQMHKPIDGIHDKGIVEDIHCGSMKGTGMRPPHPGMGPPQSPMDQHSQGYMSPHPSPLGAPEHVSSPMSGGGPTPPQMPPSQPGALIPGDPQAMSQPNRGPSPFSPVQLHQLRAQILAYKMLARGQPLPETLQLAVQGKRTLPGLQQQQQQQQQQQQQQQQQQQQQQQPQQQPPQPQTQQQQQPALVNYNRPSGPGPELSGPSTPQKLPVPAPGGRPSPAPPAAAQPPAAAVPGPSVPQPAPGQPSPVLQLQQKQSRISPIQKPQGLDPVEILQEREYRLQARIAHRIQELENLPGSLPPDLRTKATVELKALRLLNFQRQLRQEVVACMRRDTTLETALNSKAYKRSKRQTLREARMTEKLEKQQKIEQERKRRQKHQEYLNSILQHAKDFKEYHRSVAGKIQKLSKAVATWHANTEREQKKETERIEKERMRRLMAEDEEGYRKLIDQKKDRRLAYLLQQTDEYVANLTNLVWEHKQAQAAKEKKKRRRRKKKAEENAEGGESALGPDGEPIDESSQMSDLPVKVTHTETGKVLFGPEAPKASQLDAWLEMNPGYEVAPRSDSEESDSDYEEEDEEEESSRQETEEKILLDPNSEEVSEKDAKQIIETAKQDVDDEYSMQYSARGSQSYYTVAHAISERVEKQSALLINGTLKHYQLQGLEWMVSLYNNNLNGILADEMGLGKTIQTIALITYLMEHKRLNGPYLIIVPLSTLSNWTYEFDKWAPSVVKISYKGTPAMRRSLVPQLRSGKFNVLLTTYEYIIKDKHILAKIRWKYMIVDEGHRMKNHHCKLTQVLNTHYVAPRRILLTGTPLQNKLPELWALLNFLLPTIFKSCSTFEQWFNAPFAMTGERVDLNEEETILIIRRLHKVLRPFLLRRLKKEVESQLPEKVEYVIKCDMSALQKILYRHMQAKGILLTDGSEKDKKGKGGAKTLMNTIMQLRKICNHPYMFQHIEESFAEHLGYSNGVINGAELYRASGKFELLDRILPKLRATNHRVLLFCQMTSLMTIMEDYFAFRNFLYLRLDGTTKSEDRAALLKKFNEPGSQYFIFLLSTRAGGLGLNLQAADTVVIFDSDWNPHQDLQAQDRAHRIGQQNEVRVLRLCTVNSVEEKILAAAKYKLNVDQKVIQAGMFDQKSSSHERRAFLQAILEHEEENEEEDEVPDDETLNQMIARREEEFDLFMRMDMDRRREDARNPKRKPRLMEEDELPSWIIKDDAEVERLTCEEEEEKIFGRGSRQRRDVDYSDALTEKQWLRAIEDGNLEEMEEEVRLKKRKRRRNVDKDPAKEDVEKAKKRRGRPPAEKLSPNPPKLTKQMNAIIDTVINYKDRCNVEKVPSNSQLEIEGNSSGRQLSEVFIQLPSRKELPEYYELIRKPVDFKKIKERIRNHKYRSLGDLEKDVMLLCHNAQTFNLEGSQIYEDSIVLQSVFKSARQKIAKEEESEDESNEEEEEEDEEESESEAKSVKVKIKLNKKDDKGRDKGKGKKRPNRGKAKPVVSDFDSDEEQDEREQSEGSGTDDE

| SMILES | Dmax [1] [%] | DC50 [1] [nM] | DC50 (HiBit-BRM fusion protein) [nM] | BRM HiBit Degradation Maximum (%) (HiBit-BRM fusion protein) |
| --- | --- | --- | --- | --- |
| Cc1ncsc1-c1ccc([C@H](C)NC(=O)[C@@H]2C[C@@H](O)CN2C(=O)[C@@H](c2cc(OCCN3C[C@H]4C[C@@H](C3)[C@H]4c3sc4nnc(-c5ccccc5O)cc4c3C)no2)C(C)C)cc1 [Compound 62, (2S,4R)-4-hydroxy-1-((R)-2-(3-(2-((1R,5S,6S)-6-(3-(2-hydroxyphenyl)-5-methylthieno[2,3-c]pyridazin-6-yl)-3-azabicyclo[3.1.1]heptan-3-yl)ethoxy)isoxazol-5-yl)-3-methylbutanoyl)-N-((S)-1-(4-(4-methylthiazol-5-yl)phenyl)ethyl)pyrrolidine-2-carboxamide] | < 50 | ≥ 1000 | ≥ 1000 | C (“C” indicates maximum degradation < 50%) |
| Cc1ncsc1-c1ccc([C@H](C)NC(=O)[C@@H]2C[C@@H](O)CN2C(=O)[C@@H](c2cc(OCCN3C[C@H]4C[C@@H](C3)[C@@H]4c3sc4nnc(-c5ccccc5O)cc4c3C)no2)C(C)C)cc1 [Compound 63, (2S,4R)-4-hydroxy-1-((R)-2-(3-(2-((1R,5S,6R)-6-(3-(2-hydroxyphenyl)-5-methylthieno[2,3-c]pyridazin-6-yl)-3-azabicyclo[3.1.1]heptan-3-yl)ethoxy)isoxazol-5-yl)-3-methylbutanoyl)-N-((S)-1-(4-(4-methylthiazol-5-yl)phenyl)ethyl)pyrrolidine-2-carboxamide] | < 50 | ≥ 1000 | ≥ 10 | A (“A” indicates maximum degradation ≥ 75%) |
| Cc1ncsc1-c1ccc([C@H](C)NC(=O)[C@@H]2C[C@@H](O)CN2C(=O)[C@@H](c2cc(C34CC(C(=O)N5CCC(c6sc7nnc(-c8ccccc8O)cc7c6C)CC5)(C3)C4)no2)C(C)C)cc1 [Compound 64, (2S,4R)-4-hydroxy-1-((R)-2-(3-(3-(4-(3-(2-hydroxyphenyl)-5-methylthieno[2,3-c]pyridazin-6-yl)piperidine-1-carbonyl)bicyclo[1.1.1]pentan-1-yl)isoxazol-5-yl)-3-methylbutanoyl)-N-((S)-1-(4-(4-methylthiazol-5-yl)phenyl)ethyl)pyrrolidine-2-carboxamide] | ≥ 75 | < 10 | < 10 | A (“A” indicates maximum degradation ≥ 75%) |
| Cc1ncsc1-c1ccc([C@H](C)NC(=O)[C@@H]2C[C@@H](O)CN2C(=O)[C@@H](NC(=O)c2cnc(N3CCC(c4sc5nnc(-c6ccccc6O)cc5c4C)CC3)nc2)C(C)(C)C)cc1 [Compound 65, N-((S)-1-((2S,4R)-4-hydroxy-2-(((S)-1-(4-(4-methylthiazol-5-yl)phenyl)ethyl)carbamoyl)pyrrolidin-1-yl)-3,3-dimethyl-1-oxobutan-2-yl)-2-(4-(3-(2-hydroxyphenyl)-5-methylthieno[2,3-c]pyridazin-6-yl)piperidin-1-yl)pyrimidine-5-carboxamide] | < 50 | ≥ 1000 | ≥ 10 | A (“A” indicates maximum degradation ≥ 75%) |
| Cc1ncsc1-c1ccc([C@H](C)NC(=O)[C@@H]2C[C@@H](O)CN2C(=O)[C@@H](c2cc(OCCN3CCN(c4sc5nnc(-c6ccccc6O)cc5c4C)CC3)no2)C(C)C)cc1 [Compound 66, (2S,4R)-4-hydroxy-1-((R)-2-(3-(2-(4-(3-(2-hydroxyphenyl)-5-methylthieno[2,3-c]pyridazin-6-yl)piperazin-1-yl)ethoxy)isoxazol-5-yl)-3-methylbutanoyl)-N-((S)-1-(4-(4-methylthiazol-5-yl)phenyl)ethyl)pyrrolidine-2-carboxamide] | ≥ 75 | ≥ 10 | < 10 | A (“A” indicates maximum degradation ≥ 75%) |
| Cc1ncsc1-c1ccc([C@H](C)NC(=O)[C@@H]2C[C@@H](O)CN2C(=O)[C@@H](c2cc(OCCN3C[C@H]4C[C@@H](C3)[C@@H]4c3cc4cc(-c5ccccc5O)nnc4s3)no2)C(C)C)cc1 [Compound 71, (2S,4R)-4-hydroxy-N-[(1S)-1-[4-(4-methyl-1,3-thiazol-5-yl)phenyl]ethyl]-1-[(2R)-3-methyl-2-(3-{2-[(1R,5S,6r)-6-[3-(2-hydroxyphenyl)thieno[2,3-c]pyridazin-6-yl]-3-azabicyclo[3.1.1]heptan-3-yl]ethoxy}-1,2-oxazol-5-yl)butanoyl]pyrrolidine-2-carboxamide] | < 50 | ≥ 1000 | ≥ 10 | A (“A” indicates maximum degradation ≥ 75%) |

More lines, main results first:

| Dmax [1] [%] | DC50 [1] [nM] | DC50 (HiBit-BRM fusion protein) [nM] | SMILES | BRM HiBit Degradation Maximum (%) (HiBit-BRM fusion protein) |
| --- | --- | --- | --- | --- |
| < 50 | ≥ 1000 | ≥ 100 | Cc1ncsc1-c1ccc([C@H](C)NC(=O)[C@@H]2C[C@@H](O)CN2C(=O)[C@@H](c2cc(OCCN3CC4CC3CC4c3cc4cc(-c5ccccc5O)nnc4s3)no2)C(C)C)cc1 (stereo partly drawn) [Compound 67, (2S,4R)-4-hydroxy-1-((2R)-2-(3-(2-(5-(3-(2-hydroxyphenyl)thieno[2,3-c]pyridazin-6-yl)-2-azabicyclo[2.2.1]heptan-2-yl)ethoxy)isoxazol-5-yl)-3-methylbutanoyl)-N-((S)-1-(4-(4-methylthiazol-5-yl)phenyl)ethyl)pyrrolidine-2-carboxamide] | A (“A” indicates maximum degradation ≥ 75%) |
| < 50 | ≥ 1000 | ≥ 100 | Cc1ncsc1-c1ccc([C@H](C)NC(=O)[C@@H]2C[C@@H](O)CN2C(=O)[C@@H](c2cc(OCCN3CCC(c4sc5nnc(-c6ccccc6O)cc5c4F)CC3)no2)C(C)C)cc1 [Compound 68, (2S,4R)-1-((R)-2-(3-(2-(4-(5-fluoro-3-(2-hydroxyphenyl)thieno[2,3-c]pyridazin-6-yl)piperidin-1-yl)ethoxy)isoxazol-5-yl)-3-methylbutanoyl)-4-hydroxy-N-((S)-1-(4-(4-methylthiazol-5-yl)phenyl)ethyl)pyrrolidine-2-carboxamide] | B (“B” indicates maximum degradation ≥ 50%) |
| < 50 | ≥ 1000 | ≥ 1000 | Cc1ncsc1-c1ccc([C@H](C)NC(=O)[C@@H]2C[C@@H](O)CN2C(=O)[C@@H](c2cc(OCCCN3CCc4sc5nnc(-c6ccccc6O)cc5c4C3)no2)C(C)C)cc1 [Compound 69, (2S,4R)-4-hydroxy-1-((R)-2-(3-(3-(3-(2-hydroxyphenyl)-7,8-dihydropyrido[3′,4′:4,5]thieno[2,3-c]pyridazin-6(5H)-yl)propoxy)isoxazol-5-yl)-3-methylbutanoyl)-N-((S)-1-(4-(4-methylthiazol-5-yl)phenyl)ethyl)pyrrolidine-2-carboxamide] | C (“C” indicates maximum degradation < 50%) |
| < 50 | ≥ 1000 | ≥ 1000 | Cc1ncsc1-c1ccc([C@H](C)NC(=O)[C@@H]2C[C@@H](O)CN2C(=O)[C@@H](c2cc(N3CCC(N4CCc5sc6nnc(-c7ccccc7O)cc6c5C4)CC3)no2)C(C)C)cc1 [Compound 70, (2S,4R)-4-hydroxy-1-((R)-2-(3-(4-(3-(2-hydroxyphenyl)-7,8-dihydropyrido[3′,4′:4,5]thieno[2,3-c]pyridazin-6(5H)-yl)piperidin-1-yl)isoxazol-5-yl)-3-methylbutanoyl)-N-((S)-1-(4-(4-methylthiazol-5-yl)phenyl)ethyl)pyrrolidine-2-carboxamide] | C (“C” indicates maximum degradation < 50%) |
